Experimental data: patent US3965111A, “Triazolothienodiazepine compounds” (Yoshitomi Pharmaceutical Industries, Ltd., priority 1971, dated 1976)

Legend:
Format in all cases: in vivo
[1] = Anti-megimide effect (prevention of tonic extensor convulsion); settings: Mus musculus, ip; mice, intraperitoneal, 60 min before megimide 80 mg/kg s.c.; tonic extensor convulsion prevented for 3 hours in 50%; read-out: Antimegimide Effect ED50
Description: Iii. anti-megimide Effect
Megimide (80 mg/kg) was administered subcutaneously to groups, each of 6 mice, 60 minutes after intra-peritoneal administration of the test compound. The ED50, a dose required to prevent for 3 hours, the tonic extensor convulsion induced by the administration of megimide in 50% of the animals, was determined graphically.

[2] = test system: fighting episodes in mice; experiment: Suppression of fighting behavior (electric foot-shock induced fighting); settings: Mus musculus; female mice, oral, 60 min before foot-shock for 3 min; dose to suppress 50% of fighting pairs
Description: I. suppression of Fighting Behavior
Fighting episodes were produced in mice by the method described by Tedeschi et al in Journal of Pharmacology and Experimental Therapeutics, Vol. 125, pp. 28 ff. (1959). Groups of 8 female mice (4 pairs) were given orally, the test compound 60 minutes prior to receiving electric foot-shock for 3 minutes with 530 volts of interrupted direct current, 1.3 milliamperes, 10 Hz. […] The control mice of 81 pairs had shown the fighting episodes of 8.7 times on the average under the same conditions. The ED50, a dose required to suppress 50% of fighting pairs was determined graphically.

[3] = Anti-pentylenetetrazole effect (prevention of death); settings: Mus musculus, ip; mice, intraperitoneal, 15 min before pentylenetetrazole 150 mg/kg s.c.; dead mice counted at 3 hours; read-out: Antipentylenetetrazole Effect ED50
Description: Ii. anti-pentylenetetrazole Effect
Pentylenetetrazole (150 mg/kg) was administered subcutaneously to groups, each of 6 mice, 15 minutes after intraperitoneal administration of the test compound. The number of dead mice were counted 3 hours after the administration of pentylenetetrazole, and then the ED50, a dose required to reduce the number of dead mice to 50%, was determined graphically.

Structure (SMILES) | ED50 [1] [mg/kg] | ED50 [2] [mg/kg] | ED50 [3] [mg/kg]
Cc1cc2c(s1)-n1c(nn(C)c1=O)CN=C2c1ccccc1Cl [A, 2,8-Dimethyl-6-o-chlorophenyl-1,2-dihydro-4H-s-triazolo [3,4-c]-thieno[2,3-e][1,4]diazepin-1-one] | 1.3 | 4.8 | 0.9
CCc1cc2c(s1)-n1c(nn(C)c1=O)CN=C2c1ccccc1Cl [B, 2-Methyl-6-o-chlorophenyl-8-ethyl-1,2-dihydro-4H-s-triazolo[3,4-c]-thieno[2,3-e][1,4]diazepin-1-one] | 5.7 | 0.8 | 1.4
CCc1cc2c(s1)-n1c(n[nH]c1=O)CN=C2c1ccccc1Br [C, 6-o-Bromophenyl-8-ethyl-1,2-dihydro-4H-s-triazolo[3,4-c]-thieno[2,3-e]-[1,4]diazepin-1-one] | 7.2 | 2.7 | 2.6
